Results on 1 compound are retold here after patent US11229618B2 (Amarin Pharmaceuticals Ireland Limited, priority 2012, dated 2022).

The nature of data set [1]: MARINE: plasma fatty acid concentrations, ratios and class proportions (GC/FID). It is filed as in vivo, human. To be noted: for Mono-unsaturated, proportion to total fatty acids, Mean placebo-adjusted percent change from baseline / Total omega-6, proportion to total fatty acids, Mean placebo-adjusted percent change from baseline / Saturated, proportion to total fatty acids, Mean placebo-adjusted percent change from baseline / Total omega-3, proportion to total fatty acids, Mean placebo-adjusted percent change from baseline: Plasma; for Palmitic Mean placebo-adjusted percent change from baseline / Oleic Mean placebo-adjusted percent change from baseline / Stearic Mean placebo-adjusted percent change from baseline / Linoleic Mean placebo-adjusted percent change from baseline / DHA Mean placebo-adjusted percent change from baseline / AA Mean placebo-adjusted percent change from baseline / DPAn-3 Mean placebo-adjusted percent change from baseline: plasma, week 12. Here is the method: A multi-center, placebo-controlled randomized, double-blind, 12-week study with an open-label extension is performed to evaluate the efficacy and safety of AMR101 in patients with fasting triglyceride levels≥500 mg/dL. The primary objective of the study is to determine the efficacy of AMR101 2 g daily and 4 g daily, compared to placebo, in lowering fasting TG levels in patients with fasting TG levels≥500 mg/dL and ≤1500 mg/dL (≥5.65 mmol/L and ≤16.94 mmol/L).
Eligible patients will be randomly assigned at Visit 4 (Week 0) to receive orally AMR101 2 g daily, AMR101 4 g daily, or placebo for the 12-week double-blind treatment period. AMR101 is provided in 1 g liquid-filled, oblong, gelatin capsules. The matching placebo capsule is filled with light liquid paraffin and contains 0 g of AMR101. During the double-blind treatment period, patients will take 2 capsules (AMR101 or matching placebo) in the morning and 2 in the evening for a total of 4 capsules per day. Patients in the AMR101 2 g/day treatment group will receive 1 AMR101 1 g capsule and 1 matching placebo capsule in the morning and in the evening. Patients in the AMR101 4 g/day treatment group will receive 2 AMR101 1 g capsules in the morning and evening.
Lipids were extracted from plasma and RBC suspensions and converted into fatty acid methyl esters for analysis using a standard validated gas chromatography/flame ionization detection method. Fatty acid parameters were compared between EPA treatment groups and placebo using an ANCOVA model with treatment, gender, type of statin therapy, and presence of diabetes as factors, and the baseline parameter value as a covariate. LSMs, SEs, and 2-tailed 95% confidence intervals for each treatment group and for each comparison were determined.
The monounsaturated fatty acid group included myristoleic, palmitoleic, cis-vaccenic, oleic, gondoic/gadoleic, erucic and nervonic acids. The saturated fatty acid group included myristic, palmitic, stearic, arachidic, behenic and lignoceric acids. The “total omega-3” group included α-linolenic, stearidonic, eicosatrienoic, ω-3 arachidonic, eicosapentaenoic, ω-3 docosapentaenoic and docosahecaenoic acids. The “total omega-6” group included linoleic, γ-linolenic, eicosadienoic, dihomo-γ-linolenic, ω-6 arachidonic, adrenic, and ω-6 docosapentaenoic acids. The “total fatty acid” group represented the sum of the monounsaturated, saturated, total omega-3 and total omega-6 groups.

Data set [2] in a line: Cross-study analysis of trough EPA concentrations in plasma and RBCs (Phase 1 PK, MARINE, ANCHOR). It is filed as in vivo, human. Here is the method: The objective of this Example is to examine the effects of high-purity ethyl eicosapentaenoate (“IPE”) on EPA concentrations in plasma and RBCs in response to dose and the relationship to triglyceride (“TG”) lowering across 3 clinical studies.
MARINE and ANCHOR were 12-week, phase 3, double-blind studies that randomized patients to IPE 4 g/day, 2 g/day, or placebo. MARINE randomized 229 patients with TG≥500 and ≤2000 mg/dL while ANCHOR randomized 702 high-risk patients with TG≥200 and ≤500 mg/dL despite LDL-C control while on statin therapy. IPE 4 g/day and 2 g/day were also investigated in 48 healthy subjects for 4 weeks in a phase 1 pharmacokinetic (“PK”) study. […]
In the MARINE and ANCHOR studies, the trough EPA concentrations were measured after 12 weeks of dosing with placebo, 2 g/day or 4 g/day IPE
In the Phase 1 PK study, the trough EPA concentrations were measured after 28 days of dosing with 2 or 4 g/day IPE (there was no placebo group; a value of zero is used in plots as a point of reference)
EPA concentrations were measured with a validated LC-MS/MS method in plasma and in RBCs in all 3 studies […]
Quantitation utilized linolenic acid as an internal standard and EPA as the standard for the calibration curve; for total plasma EPA and total RBC EPA, the lower limits of quantitation were 10 μg/mL and 5 μg/mL, respectively

[3] abbreviates: IPE 2 g/day vs placebo, P <0.0001.
Where [4] appears, read: IPE 4 g/day vs placebo, P <0.0001.

Each structure is given as a SMILES string.

Regarding `CC/C=C\C/C=C\C/C=C\C/C=C\C/C=C\CCCC(=O)OCC` [IPE, all-cis eicosa-5,8,11,14,17-pentaenoic acid ethyl ester], the “Mono-unsaturated, proportion to total fatty acids, Mean placebo-adjusted percent change from baseline” value is −7.4% in data set [1] (IPE 2 g/day vs placebo, P 0.0009) and −7.7% in data set [1] (IPE 4 g/day vs placebo, P 0.0008). Also, the “Total omega-6, proportion to total fatty acids, Mean placebo-adjusted percent change from baseline” value is 3.2% in data set [1] (IPE 2 g/day vs placebo, P 0.3044) and 0.5% in data set [1] (IPE 4 g/day vs placebo, P 0.8846). In addition, the “Saturated, proportion to total fatty acids, Mean placebo-adjusted percent change from baseline” value in data set [1] (IPE 2 g/day vs placebo, P 0.8076) was −0.4%; in data set [1] (IPE 4 g/day vs placebo, P 0.1049) it was −2.8%. Also, the “Total omega-3, proportion to total fatty acids, Mean placebo-adjusted percent change from baseline” value in data set [1] (setting [3]) turned out to be 68.4%; in data set [1] (setting [4]), 132.7%. For the same compound, the “Palmitic Mean placebo-adjusted percent change from baseline” value in data set [1] (IPE 2 g/day vs placebo, P 0.0011) is recorded as −23.9%; in data set [1] (setting [4]), −34.4%. Moreover, the “Oleic Mean placebo-adjusted percent change from baseline” value in data set [1] (IPE 2 g/day vs placebo, P 0.0023) is reported as −23.8%; in data set [1] (IPE 4 g/day vs placebo, P 0.0001) it was −31.9%. Further, the “Stearic Mean placebo-adjusted percent change from baseline” value in data set [1] (IPE 2 g/day vs placebo, P 0.0040) is reported as −20.7%; in data set [1] (IPE 4 g/day vs placebo, P 0.0002) it was −28.4%. The “Linoleic Mean placebo-adjusted percent change from baseline” value in data set [1] (IPE 2 g/day vs placebo, P 0.0136) is reported as −15.2%; in data set [1] (IPE 4 g/day vs placebo, P 0.0003), −23.7%. Also, the “DHA Mean placebo-adjusted percent change from baseline” value was −2.3% in data set [1] (IPE 2 g/day vs placebo, P 0.7217) and 2.4% in data set [1] (IPE 4 g/day vs placebo, P 0.7115). The “AA Mean placebo-adjusted percent change from baseline” value in data set [1] (setting [3]) is recorded as −16.4%; in data set [1] (setting [4]), −26.8%. Further, the results for the “DPAn-3 Mean placebo-adjusted percent change from baseline” value in data set [1] (setting [3]) and in data set [1] (setting [4]) were 107.2% and 150.8%, respectively. In addition, the “dose dependence of plasma and RBC EPA levels” value in data set [2] (2 and 4 g/day groups, all 3 studies) is “linear with dose”. In data set [2] (MARINE and ANCHOR), the “effect of demographic factors, baseline TG levels and concomitant medications on EPA concentrations in plasma and RBCs” value is listed as “did not affect the increase in EPA concentrations”.
